From ChEMBL document CHEMBL4507288 (2021)

Tests used:
[1] = target: Dual specificity mitogen-activated protein kinase kinase 7 (Homo sapiens) (UniProt O14733); settings: Compound concentration 1000.0 nM
[2] = target: Casein kinase I isoform alpha (Homo sapiens) (UniProt P48729); settings: Compound concentration 1000.0 nM
[3] = test system: Phosphatidylinositol 4,5-bisphosphate 3-kinase catalytic subunit alpha isoform (Homo sapiens), P42336 [Q546K]; settings: Compound concentration 1000.0 nM
[4] = target: Tyrosine-protein kinase receptor TYRO3 (Homo sapiens) (UniProt Q06418); settings: Compound concentration 1000.0 nM
[5] = target: Insulin receptor (Homo sapiens) (UniProt P06213); settings: Compound concentration 1000.0 nM
[6] = target: Mitogen-activated protein kinase 4 (Homo sapiens) (UniProt P31152); settings: Compound concentration 1000.0 nM
[7] = target: NT-3 growth factor receptor (Homo sapiens) (UniProt Q16288); settings: Compound concentration 1000.0 nM
[8] = target: Ribosomal protein S6 kinase alpha-1 (Homo sapiens) (UniProt Q15418); settings: Compound concentration 1000.0 nM
[9] = target: Myosin-IIIa (Homo sapiens) (UniProt Q8NEV4); settings: Compound concentration 1000.0 nM
[10] = target: Non-receptor tyrosine-protein kinase TYK2 (Homo sapiens) (UniProt P29597); settings: Compound concentration 1000.0 nM
[11] = target: Cyclin-dependent kinase 11B (Homo sapiens) (UniProt P21127); settings: Compound concentration 1000.0 nM
[12] = target: Mitogen-activated protein kinase kinase kinase kinase 5 (Homo sapiens) (UniProt Q9Y4K4); settings: Compound concentration 1000.0 nM
[13] = target: Calcium/calmodulin-dependent protein kinase type II subunit beta (Homo sapiens) (UniProt Q13554); settings: Compound concentration 1000.0 nM
Chain of Calcium/calmodulin-dependent protein kinase type II subunit beta (Homo sapiens) (Q13554 whole entry): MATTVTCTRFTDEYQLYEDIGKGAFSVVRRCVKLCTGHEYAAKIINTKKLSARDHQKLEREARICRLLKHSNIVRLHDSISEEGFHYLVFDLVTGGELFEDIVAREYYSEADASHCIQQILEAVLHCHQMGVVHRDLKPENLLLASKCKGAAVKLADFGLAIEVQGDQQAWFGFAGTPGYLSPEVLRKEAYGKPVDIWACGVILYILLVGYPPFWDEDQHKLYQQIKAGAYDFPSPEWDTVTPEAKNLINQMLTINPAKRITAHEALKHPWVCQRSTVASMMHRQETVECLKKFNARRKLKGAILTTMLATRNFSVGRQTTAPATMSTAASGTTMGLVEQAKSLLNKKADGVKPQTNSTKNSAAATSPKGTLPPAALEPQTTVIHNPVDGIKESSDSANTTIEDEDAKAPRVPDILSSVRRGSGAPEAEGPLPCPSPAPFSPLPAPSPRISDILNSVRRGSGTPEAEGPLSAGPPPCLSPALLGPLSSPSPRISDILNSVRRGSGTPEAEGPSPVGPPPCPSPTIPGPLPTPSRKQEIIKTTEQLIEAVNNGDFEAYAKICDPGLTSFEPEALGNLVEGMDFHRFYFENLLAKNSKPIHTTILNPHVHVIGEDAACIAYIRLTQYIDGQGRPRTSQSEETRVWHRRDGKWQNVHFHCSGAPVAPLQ

[14] = target: Ribosomal protein S6 kinase alpha-3 (Homo sapiens) (UniProt P51812); settings: Compound concentration 1000.0 nM
[15] = target: Mitogen-activated protein kinase 12 (Homo sapiens) (UniProt P53778); settings: Compound concentration 1000.0 nM
[16] = target: Tyrosine-protein kinase SYK (Homo sapiens) (UniProt P43405); settings: Compound concentration 1000.0 nM
[17] = test system: Phosphatidylinositol 4,5-bisphosphate 3-kinase catalytic subunit alpha isoform (Homo sapiens), P42336 [C420R]; settings: Compound concentration 1000.0 nM
[18] = target: Calcium/calmodulin-dependent protein kinase type II subunit alpha (Homo sapiens) (UniProt Q9UQM7); settings: Compound concentration 1000.0 nM
Chain of Calcium/calmodulin-dependent protein kinase type II subunit alpha (Homo sapiens) (Q9UQM7 whole entry): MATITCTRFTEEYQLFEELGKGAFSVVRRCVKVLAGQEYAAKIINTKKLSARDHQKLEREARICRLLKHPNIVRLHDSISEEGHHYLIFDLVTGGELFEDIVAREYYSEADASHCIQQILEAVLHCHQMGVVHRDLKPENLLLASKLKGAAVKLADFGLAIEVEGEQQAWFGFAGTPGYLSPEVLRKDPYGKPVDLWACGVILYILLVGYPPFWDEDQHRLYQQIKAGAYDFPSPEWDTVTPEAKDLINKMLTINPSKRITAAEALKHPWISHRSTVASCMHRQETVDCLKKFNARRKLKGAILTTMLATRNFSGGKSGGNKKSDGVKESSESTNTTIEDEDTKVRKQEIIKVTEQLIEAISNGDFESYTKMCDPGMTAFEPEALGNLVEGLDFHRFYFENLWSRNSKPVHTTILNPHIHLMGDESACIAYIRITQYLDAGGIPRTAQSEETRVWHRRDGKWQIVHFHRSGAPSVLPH

[19] = test system: Proto-oncogene tyrosine-protein kinase receptor Ret (Homo sapiens), P07949 [V804L]; settings: Compound concentration 1000.0 nM
[20] = target: Ephrin type-B receptor 1 (Homo sapiens) (UniProt P54762); settings: Compound concentration 1000.0 nM
Chain of Ephrin type-B receptor 1 (Homo sapiens) (P54762 whole entry): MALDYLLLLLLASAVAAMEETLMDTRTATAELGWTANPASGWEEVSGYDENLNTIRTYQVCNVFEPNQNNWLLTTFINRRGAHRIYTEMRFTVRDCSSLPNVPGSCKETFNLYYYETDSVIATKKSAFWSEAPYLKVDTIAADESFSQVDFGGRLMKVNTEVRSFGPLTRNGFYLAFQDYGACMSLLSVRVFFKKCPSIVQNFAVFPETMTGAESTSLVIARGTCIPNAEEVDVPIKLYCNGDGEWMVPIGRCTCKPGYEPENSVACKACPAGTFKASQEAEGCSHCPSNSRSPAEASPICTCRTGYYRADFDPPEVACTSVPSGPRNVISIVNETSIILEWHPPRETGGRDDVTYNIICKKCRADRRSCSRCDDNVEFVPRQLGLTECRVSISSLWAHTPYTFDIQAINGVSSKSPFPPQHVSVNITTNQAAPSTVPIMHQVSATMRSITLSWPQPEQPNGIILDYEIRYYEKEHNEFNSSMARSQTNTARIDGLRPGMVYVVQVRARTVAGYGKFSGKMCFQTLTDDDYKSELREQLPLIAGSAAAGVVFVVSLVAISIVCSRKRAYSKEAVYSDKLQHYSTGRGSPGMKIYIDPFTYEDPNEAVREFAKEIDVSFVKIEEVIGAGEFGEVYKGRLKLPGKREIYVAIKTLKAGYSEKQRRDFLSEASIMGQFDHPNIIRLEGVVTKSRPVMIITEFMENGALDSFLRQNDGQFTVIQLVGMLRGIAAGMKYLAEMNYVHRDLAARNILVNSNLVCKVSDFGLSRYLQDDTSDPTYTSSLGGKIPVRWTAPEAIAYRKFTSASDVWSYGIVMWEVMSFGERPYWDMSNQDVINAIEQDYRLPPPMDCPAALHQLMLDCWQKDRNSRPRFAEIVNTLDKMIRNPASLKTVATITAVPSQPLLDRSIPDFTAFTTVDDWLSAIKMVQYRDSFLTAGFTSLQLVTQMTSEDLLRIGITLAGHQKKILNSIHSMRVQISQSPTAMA

[21] = test system: Receptor-type tyrosine-protein kinase FLT3 (Homo sapiens), P36888 [N841I]; settings: Compound concentration 1000.0 nM
[22] = target: Dual specificity tyrosine-phosphorylation-regulated kinase 2 (Homo sapiens) (UniProt Q92630); settings: Compound concentration 1000.0 nM
[23] = target: Protein kinase C epsilon type (Homo sapiens) (UniProt Q02156); settings: Compound concentration 1000.0 nM
Chain of Protein kinase C epsilon type (Homo sapiens) (Q02156 whole entry): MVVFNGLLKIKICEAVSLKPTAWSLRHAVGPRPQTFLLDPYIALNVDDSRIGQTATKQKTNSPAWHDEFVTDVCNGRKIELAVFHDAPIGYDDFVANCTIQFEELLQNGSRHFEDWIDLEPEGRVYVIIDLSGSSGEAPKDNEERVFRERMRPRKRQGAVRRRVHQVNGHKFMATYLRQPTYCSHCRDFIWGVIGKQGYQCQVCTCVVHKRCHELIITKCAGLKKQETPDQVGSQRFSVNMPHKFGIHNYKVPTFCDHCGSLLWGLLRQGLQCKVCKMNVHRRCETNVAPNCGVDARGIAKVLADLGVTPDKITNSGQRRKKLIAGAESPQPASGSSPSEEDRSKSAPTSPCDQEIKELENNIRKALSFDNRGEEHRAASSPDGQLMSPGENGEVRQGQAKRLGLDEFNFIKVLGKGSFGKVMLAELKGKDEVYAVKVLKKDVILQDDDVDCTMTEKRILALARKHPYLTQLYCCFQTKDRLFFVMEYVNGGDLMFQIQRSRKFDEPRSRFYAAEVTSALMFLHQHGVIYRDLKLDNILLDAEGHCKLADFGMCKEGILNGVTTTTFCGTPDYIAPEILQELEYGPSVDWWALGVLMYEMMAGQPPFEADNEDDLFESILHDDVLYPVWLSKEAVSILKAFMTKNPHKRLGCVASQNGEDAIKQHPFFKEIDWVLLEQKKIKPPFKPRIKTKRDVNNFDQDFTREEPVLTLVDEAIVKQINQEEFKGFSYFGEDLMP

[24] = target: Cyclin-dependent kinase 15 (Homo sapiens) (UniProt Q96Q40); settings: Compound concentration 1000.0 nM
[25] = target: Megakaryocyte-associated tyrosine-protein kinase (Homo sapiens) (UniProt P42679); settings: Compound concentration 1000.0 nM
[26] = target: Mitogen-activated protein kinase 8 (Homo sapiens) (UniProt P45983); settings: Compound concentration 1000.0 nM
[27] = target: Phosphatidylinositol 5-phosphate 4-kinase type-2 beta (Homo sapiens) (UniProt P78356); settings: Compound concentration 1000.0 nM
[28] = target: Mitogen-activated protein kinase 14 (Homo sapiens) (UniProt Q16539); settings: Compound concentration 1000.0 nM
[29] = target: cGMP-dependent protein kinase 2 (Homo sapiens) (UniProt Q13237); settings: Compound concentration 1000.0 nM
[30] = target: Serine/threonine-protein kinase Nek2 (Homo sapiens) (UniProt P51955); settings: Compound concentration 1000.0 nM
[31] = target: Serine/threonine-protein kinase Sgk3 (Homo sapiens) (UniProt Q96BR1); settings: Compound concentration 1000.0 nM
[32] = target: Tyrosine-protein kinase Fgr (Homo sapiens) (UniProt P09769); settings: Compound concentration 1000.0 nM
Chain of Tyrosine-protein kinase Fgr (Homo sapiens) (P09769 2-529 limits assumed): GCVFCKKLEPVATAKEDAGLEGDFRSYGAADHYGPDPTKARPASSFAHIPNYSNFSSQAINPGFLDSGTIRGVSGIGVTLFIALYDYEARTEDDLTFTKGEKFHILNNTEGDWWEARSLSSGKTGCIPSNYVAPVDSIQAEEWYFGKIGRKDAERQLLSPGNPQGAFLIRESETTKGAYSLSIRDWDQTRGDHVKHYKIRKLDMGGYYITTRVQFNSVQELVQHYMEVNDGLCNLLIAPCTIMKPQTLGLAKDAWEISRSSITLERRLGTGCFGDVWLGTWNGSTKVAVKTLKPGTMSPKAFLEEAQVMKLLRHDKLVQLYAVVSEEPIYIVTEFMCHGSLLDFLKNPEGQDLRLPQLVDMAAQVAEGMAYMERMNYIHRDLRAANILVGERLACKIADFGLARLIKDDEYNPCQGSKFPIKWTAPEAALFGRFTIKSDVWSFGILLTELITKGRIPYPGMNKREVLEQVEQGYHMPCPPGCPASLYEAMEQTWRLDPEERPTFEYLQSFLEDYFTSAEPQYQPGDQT

[33] = target: Casein kinase I isoform alpha-like (Homo sapiens) (UniProt Q8N752); settings: Compound concentration 1000.0 nM
[34] = target: 5'-AMP-activated protein kinase catalytic subunit alpha-2 (Homo sapiens) (UniProt P54646); settings: Compound concentration 1000.0 nM
[35] = target: Phosphatidylinositol 4,5-bisphosphate 3-kinase catalytic subunit alpha isoform (Homo sapiens) (UniProt P42336); settings: Compound concentration 1000.0 nM
[36] = target: Receptor tyrosine-protein kinase erbB-4 (Homo sapiens) (UniProt Q15303); settings: Compound concentration 1000.0 nM
[37] = target: STE20-like serine/threonine-protein kinase (Homo sapiens) (UniProt Q9H2G2); settings: Compound concentration 1000.0 nM
[38] = target: Atypical kinase COQ8B, mitochondrial (Homo sapiens) (UniProt Q96D53); settings: Compound concentration 1000.0 nM
[39] = target: Angiopoietin-1 receptor (Homo sapiens) (UniProt Q02763); settings: Compound concentration 1000.0 nM
[40] = target: Tyrosine-protein kinase Yes (Homo sapiens) (UniProt P07947); settings: Compound concentration 1000.0 nM
[41] = target: TGF-beta receptor type-1 (Homo sapiens) (UniProt P36897); settings: Compound concentration 1000.0 nM
[42] = test system: Tyrosine-protein kinase ABL1 (Homo sapiens), P00519 [F317I]; settings: Compound concentration 1000.0 nM
Chain of Tyrosine-protein kinase ABL1 (Homo sapiens), P00519 [F317I] (P00519 whole entry F317I): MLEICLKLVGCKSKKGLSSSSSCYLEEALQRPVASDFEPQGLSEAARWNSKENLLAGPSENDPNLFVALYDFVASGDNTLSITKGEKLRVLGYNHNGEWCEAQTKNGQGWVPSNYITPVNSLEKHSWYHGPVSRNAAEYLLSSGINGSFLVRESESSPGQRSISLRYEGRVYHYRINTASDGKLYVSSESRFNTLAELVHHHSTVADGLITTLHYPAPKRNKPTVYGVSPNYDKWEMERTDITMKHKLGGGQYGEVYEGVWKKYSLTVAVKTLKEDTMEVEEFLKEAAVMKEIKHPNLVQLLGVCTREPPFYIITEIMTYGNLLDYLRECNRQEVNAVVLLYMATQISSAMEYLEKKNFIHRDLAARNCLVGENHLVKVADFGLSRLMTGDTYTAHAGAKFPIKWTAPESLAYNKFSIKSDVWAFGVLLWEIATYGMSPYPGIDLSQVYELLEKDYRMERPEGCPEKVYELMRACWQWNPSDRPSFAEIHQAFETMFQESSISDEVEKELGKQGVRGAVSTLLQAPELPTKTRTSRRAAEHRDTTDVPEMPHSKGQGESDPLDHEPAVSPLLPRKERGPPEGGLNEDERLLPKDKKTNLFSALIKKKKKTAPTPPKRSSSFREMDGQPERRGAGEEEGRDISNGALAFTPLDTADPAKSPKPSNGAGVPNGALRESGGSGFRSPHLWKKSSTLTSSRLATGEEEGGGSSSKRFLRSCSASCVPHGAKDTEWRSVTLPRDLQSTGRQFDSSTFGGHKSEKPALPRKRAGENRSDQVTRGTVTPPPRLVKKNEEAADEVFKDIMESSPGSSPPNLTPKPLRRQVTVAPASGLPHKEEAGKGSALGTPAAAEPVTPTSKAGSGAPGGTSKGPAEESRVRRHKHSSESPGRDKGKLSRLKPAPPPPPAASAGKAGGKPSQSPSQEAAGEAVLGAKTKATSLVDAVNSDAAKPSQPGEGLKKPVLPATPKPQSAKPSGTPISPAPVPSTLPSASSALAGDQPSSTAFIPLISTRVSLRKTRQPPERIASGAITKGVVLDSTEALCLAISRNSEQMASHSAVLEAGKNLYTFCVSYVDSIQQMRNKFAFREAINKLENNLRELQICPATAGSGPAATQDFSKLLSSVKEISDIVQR

[43] = target: Activin receptor type-1-like (Homo sapiens) (UniProt P37023); settings: Compound concentration 1000.0 nM
[44] = target: Alpha-2C adrenergic receptor (Homo sapiens, UniProt P18825); test: GPCRScan assay: inhibition of Alpha2C; parameters: radioligand conc. used [nm] 0.5 – 1.0, parental cells stable MDCK
[45] = target: Alpha-2A adrenergic receptor (Homo sapiens, UniProt P08913); test: GPCRScan assay: inhibition of Alpha2A; parameters: radioligand conc. used [nm] 1.0 – 3.0, parental cells stable MDCK

Chain of Casein kinase I isoform alpha (Homo sapiens) (P48729 2-337 limits assumed): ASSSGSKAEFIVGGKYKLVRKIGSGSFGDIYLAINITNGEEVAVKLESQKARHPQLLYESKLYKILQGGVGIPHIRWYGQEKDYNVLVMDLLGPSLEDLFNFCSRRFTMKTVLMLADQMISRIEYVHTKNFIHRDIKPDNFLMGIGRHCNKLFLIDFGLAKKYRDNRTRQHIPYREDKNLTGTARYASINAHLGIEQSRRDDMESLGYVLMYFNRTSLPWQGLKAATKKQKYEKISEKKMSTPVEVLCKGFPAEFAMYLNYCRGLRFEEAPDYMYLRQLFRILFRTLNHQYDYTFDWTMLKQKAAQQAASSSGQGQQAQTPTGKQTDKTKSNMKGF

O=S(=O)(NC1CCC(c2cc(F)ccc2F)(S(=O)(=O)c2ccc(Cl)cc2)CC1)C(F)(F)F (stereo not given) [MRK-560]
active: residual activity [17] 36%
inactive: residual activity [1] 100% | residual activity [2] 100% | residual activity [3] 91% | residual activity [4] 70% | residual activity [5] 95% | residual activity [6] 95% | residual activity [7] 91% | residual activity [8] 90% | residual activity [9] 91% | residual activity [10] 86% | residual activity [11] 82% | residual activity [12] 69% | residual activity [13] 97% | residual activity [14] 83% | residual activity [15] 89% | residual activity [16] 89% | residual activity [18] 100% | residual activity [19] 84% | residual activity [20] 100% | residual activity [21] 100% | residual activity [22] 100% | residual activity [23] 52% | residual activity [24] 100% | residual activity [25] 100% | residual activity [26] 78% | residual activity [27] 68% | residual activity [28] 100% | residual activity [29] 100% | residual activity [30] 98% | residual activity [31] 89% | residual activity [32] 99% | residual activity [33] 100% | residual activity [34] 96% | residual activity [35] 100% | residual activity [36] 94% | residual activity [37] 100% | residual activity [38] 88% | residual activity [39] 85% | residual activity [40] 89% | residual activity [41] 100% | residual activity [42] 84% | residual activity [43] 100%

CC(C)(C)OC(=O)N1CCCC1CNC1CCC(c2cc(F)ccc2F)(S(=O)(=O)c2ccc(Cl)cc2)CC1 (stereo not given) [GSI-NC]
653 nM: Ki [44]
237 nM: Ki [45]
